Key:
Type in all cases: binding
[1] = target: HLA B*1501 (Homo sapiens, UniProt P01889, A329T/A93T/A95T/C349S/D201E/D98Y/E187L/E204Q/E69M/E70A/K202T/N87E/Q94N/R155S/R180W/S121R/S35A/S48A/V306I/V36M/Y140S/Y91S); experiment: biochemical
[2] = target: HLA A*3001 (Homo sapiens, UniProt P04439, D140H/D185E/E176W/F33S/G80R/H175R/K168Q/R138E/R41S); experiment: biochemical
[3] = target: H-2 K^k (Mus musculus, UniProt P04223)
[4] = target: HLA B*5802 (Homo sapiens, UniProt P01889, A329T/C349S/D201E/D98Y/E176V/E187L/E204Q/E69T/G107R/I218V/I90N/K202T/L105A/N104I/N87E/Q89R/Q94S/R106L/R155S/R180L/R86G/S101N/S121W/S35A/S48A/V127L/V306I/V36M/Y140S/Y91M)
[5] = target: HLA B*5401 (Homo sapiens, UniProt P01889, A329T/C349S/D138N/D201E/E176V/E187T/E204Q/E69G/I76V/K202T/L119W/R155S/R180L/S121T/S35A/S48A/V127L/V306I/V36M/Y140L)
[6] = target: HLA B*5301 (Homo sapiens, UniProt P01889, A329T/A93T/A95T/C349S/D201E/D98Y/E176V/E187L/E204Q/E69T/G107R/I218V/K202T/L105A/L119I/N104I/Q94N/R106L/R155S/R180L/S101N/S121R/S35A/S48A/T118I/V127L/V306I/V36M/Y140S/Y91F)
[7] = target: HLA B*1503 (Homo sapiens, UniProt P01889, A329T/A93T/A95T/C349S/D201E/D98Y/E187L/E204Q/K202T/N87E/Q94N/R155S/R180L/S121R/S35A/V306I/V36M/Y140S/Y91S); experiment: biochemical
[8] = target: H-2 D^b (Mus musculus, UniProt P01899)
[9] = target: HLA B*5801 (Homo sapiens, UniProt P01889, A329T/C349S/D201E/D98Y/E176V/E187L/E204Q/E69T/G107R/I218V/I90N/K202T/L105A/L119I/N104I/N87E/Q89R/Q94S/R106L/R155S/R180L/R86G/S101N/S121R/S35A/S48A/T118I/V127L/V306I/V36M/Y140S/Y91M)
[10] = target: HLA B*3501 (Homo sapiens, UniProt P01889, A329T/A93T/A95T/C349S/D201E/D98Y/E176V/E187L/E204Q/E69T/I218V/K202T/L119I/Q94N/R155S/R180L/S121R/S35A/S48A/T118I/V127L/V306I/V36M/Y140S/Y91F)
[11] = target: HLA A*3201 (Homo sapiens, UniProt P04439, A270S/D101S/D185E/E176V/E277Q/F133L/G103R/G107R/G231S/H175R/I121M/I218V/I322F/K168Q/L105A/L300P/L318F/M331R/P208A/P217A/Q94H/R106L/R138Q/S129P/T104I/T323A/T345S/V100E/V321M/V358M); experiment: biochemical
[12] = target: HLA A*6802 (Homo sapiens, UniProt P04439, A269V/D140Y/D185E/E176V/E277Q/E87N/F33Y/G231S/I121R/I166T/I218V/L180W/L300P/L318F/N151K/P208A/P217A/Q86R/R138H/R169H/S129P/T345S/V36M)
[13] = target: H-2 K^d (Mus musculus, UniProt P01902)
[14] = target: HLA B*5101 (Homo sapiens, UniProt P01889, A329T/A93T/A95T/C349S/D138N/D201E/D98Y/E187L/E204Q/E69T/G107R/I218V/K202T/L105A/L119W/N104I/Q94N/R106L/R155S/R180L/S101N/S121T/S35A/S48A/V306I/V36M/Y195H/Y91F)
[15] = target: HLA B*0801 (Homo sapiens, UniProt P01889, A93T/A95T/D138N/E176V/E187T/K202T/Q94N/R180D/S35A/V36M/Y33D/Y91F); experiment: biochemical
[16] = target: H-2 D^d (Mus musculus, UniProt P01900)
Chain of H-2 D^d (P01900 whole entry, looked up): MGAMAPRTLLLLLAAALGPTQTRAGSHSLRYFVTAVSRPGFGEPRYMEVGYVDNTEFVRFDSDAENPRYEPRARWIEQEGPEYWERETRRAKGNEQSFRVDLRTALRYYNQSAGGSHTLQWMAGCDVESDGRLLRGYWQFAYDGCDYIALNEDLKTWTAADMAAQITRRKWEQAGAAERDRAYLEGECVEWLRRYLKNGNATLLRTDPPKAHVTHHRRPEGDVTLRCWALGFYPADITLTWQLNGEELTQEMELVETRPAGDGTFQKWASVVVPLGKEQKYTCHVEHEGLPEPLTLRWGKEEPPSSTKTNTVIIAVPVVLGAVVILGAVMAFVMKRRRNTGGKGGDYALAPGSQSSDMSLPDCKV

Chain of H-2 D^b (P01887 21-119): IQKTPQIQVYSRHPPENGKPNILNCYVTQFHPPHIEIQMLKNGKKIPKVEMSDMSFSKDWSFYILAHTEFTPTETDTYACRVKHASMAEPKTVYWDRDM
Chain of H-2 D^b (P01899 25-362): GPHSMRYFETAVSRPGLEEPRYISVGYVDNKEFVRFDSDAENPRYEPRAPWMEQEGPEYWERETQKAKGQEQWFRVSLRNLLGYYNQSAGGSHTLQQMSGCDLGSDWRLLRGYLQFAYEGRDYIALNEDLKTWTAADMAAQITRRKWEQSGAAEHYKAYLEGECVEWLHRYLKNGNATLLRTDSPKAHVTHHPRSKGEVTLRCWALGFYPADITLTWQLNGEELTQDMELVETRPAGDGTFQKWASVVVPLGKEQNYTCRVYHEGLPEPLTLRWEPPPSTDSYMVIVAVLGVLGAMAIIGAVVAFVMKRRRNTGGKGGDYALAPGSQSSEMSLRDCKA
Chain of H-2 K^d (P01887 21-119): as the sequence (P01887 21-119) above
Chain of H-2 K^d (P01902 22-368): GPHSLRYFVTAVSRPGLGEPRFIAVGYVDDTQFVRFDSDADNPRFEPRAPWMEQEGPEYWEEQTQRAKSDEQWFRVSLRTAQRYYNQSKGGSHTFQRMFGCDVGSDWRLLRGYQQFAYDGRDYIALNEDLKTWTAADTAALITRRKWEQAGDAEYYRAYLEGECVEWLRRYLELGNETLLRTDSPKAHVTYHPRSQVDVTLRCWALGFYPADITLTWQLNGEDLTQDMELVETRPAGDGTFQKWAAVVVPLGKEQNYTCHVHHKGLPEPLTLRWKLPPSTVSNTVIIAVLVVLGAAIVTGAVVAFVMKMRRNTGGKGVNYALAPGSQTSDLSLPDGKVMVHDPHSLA
Chain of H-2 K^k (P01887 21-119): as the sequence (P01887 21-119) above
Chain of H-2 K^k (P04223 22-369): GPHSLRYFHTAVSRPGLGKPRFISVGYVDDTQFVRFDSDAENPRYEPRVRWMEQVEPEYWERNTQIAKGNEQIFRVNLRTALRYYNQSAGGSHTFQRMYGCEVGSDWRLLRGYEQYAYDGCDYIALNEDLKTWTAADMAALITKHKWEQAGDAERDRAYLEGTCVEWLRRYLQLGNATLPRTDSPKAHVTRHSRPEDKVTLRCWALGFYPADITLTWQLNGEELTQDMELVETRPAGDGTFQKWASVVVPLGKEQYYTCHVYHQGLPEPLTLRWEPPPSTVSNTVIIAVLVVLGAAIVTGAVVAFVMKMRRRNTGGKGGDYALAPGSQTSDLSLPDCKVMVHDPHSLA

| Sequence | Normalized average relative binding affinity(ARB) [1] | Normalized average relative binding affinity(ARB) [2] | Normalized average relative binding affinity(ARB) [3] | Normalized average relative binding affinity(ARB) [4] | Normalized average relative binding affinity(ARB) [5] | Normalized average relative binding affinity(ARB) [6] | Normalized average relative binding affinity(ARB) [7] | Normalized average relative binding affinity(ARB) [8] | Normalized average relative binding affinity(ARB) [9] | Normalized average relative binding affinity(ARB) [10] | Normalized average relative binding affinity(ARB) [11] | Normalized average relative binding affinity(ARB) [12] | Normalized average relative binding affinity(ARB) [13] | Normalized average relative binding affinity(ARB) [14] | Normalized average relative binding affinity(ARB) [15] | Normalized average relative binding affinity(ARB) [16] |
| --- | --- | --- | --- | --- | --- | --- | --- | --- | --- | --- | --- | --- | --- | --- | --- | --- |
| XXXXXXEXX [3064.0124] | 0.49 | 0.050 | 0.13 | 0.092 | 0.26 | 0.29 | 0.043 | 0.96 | 0.15 | 0.36 | 0.092 | 0.42 | 0.14 | 0.37 | 0.32 | 0.060 |
| XXXXXXNXX [3064.0132] | 0.66 | 0.10 | 0.22 | 0.092 | 0.39 | 0.29 | 1.0 | 0.41 | 0.37 | 0.28 | 0.42 | 0.54 | 0.61 | 0.46 | 0.69 | 0.095 |
| XXXGXXXXX [3064.0066] | 0.23 | 0.50 | 0.19 | 0.15 | 0.062 | 0.18 | 0.19 | 0.088 | 0.21 | 0.17 | 0.33 | 0.26 | 0.14 | 0.47 | 0.063 | 0.17 |
| XXXWXXXXX [3064.0079] | 0.39 | 0.45 | 1.0 | 0.72 | 1.0 | 1.0 | 0.63 | 0.56 | 0.33 | 0.32 | 0.29 | 0.56 | 0.040 | 0.82 | 0.68 | 0.54 |
| XXXXXXXIX [3064.0148] | 0.18 | 0.21 | 0.56 | 0.41 | 0.11 | 1.0 | 0.33 | 0.14 | 0.39 | 0.55 | 0.60 | 0.051 | 0.30 | 0.21 | 0.39 | 0.25 |
| XXXXXXXQX [3064.0154] | 0.17 | 0.27 | 0.19 | 0.30 | 0.11 | 0.16 | 0.19 | 0.16 | 0.39 | 0.10 | 0.35 | 0.14 | 0.54 | 0.32 | 0.15 | 0.68 |
| XXXXXXXFX [3064.0145] | 0.32 | 0.76 | 1.0 | 0.33 | 0.080 | 0.46 | 0.21 | 0.79 | 1.0 | 0.13 | 0.24 | 0.31 | 0.66 | 1.0 | 0.32 | 0.75 |

— publication PMC2248166, “Quantitative peptide binding motifs for 19 human and mouse MHC class I molecules derived using positional scanning combinatorial peptide libraries” (Immunome Research, 2008)
